Source: ChEMBL document CHEMBL1138430, “Novel tetrahydroisoquinolines are histamine H3 antagonists and serotonin reuptake inhibitors” (Bioorg Med Chem Lett, 2007)
Active and inactive are the calls of the source. The rule behind the calls is not given here.

Assays:
Homo sapiens [1] = organism: Homo sapiens; test: Binding affinity at somatostatin receptor at 1 uM
[2] = molecular target: T1, Neuromedin-K receptor (Homo sapiens) (UniProt P29371); test: Binding affinity at NK3 receptor at 1 uM
T1 sequence (whole entry): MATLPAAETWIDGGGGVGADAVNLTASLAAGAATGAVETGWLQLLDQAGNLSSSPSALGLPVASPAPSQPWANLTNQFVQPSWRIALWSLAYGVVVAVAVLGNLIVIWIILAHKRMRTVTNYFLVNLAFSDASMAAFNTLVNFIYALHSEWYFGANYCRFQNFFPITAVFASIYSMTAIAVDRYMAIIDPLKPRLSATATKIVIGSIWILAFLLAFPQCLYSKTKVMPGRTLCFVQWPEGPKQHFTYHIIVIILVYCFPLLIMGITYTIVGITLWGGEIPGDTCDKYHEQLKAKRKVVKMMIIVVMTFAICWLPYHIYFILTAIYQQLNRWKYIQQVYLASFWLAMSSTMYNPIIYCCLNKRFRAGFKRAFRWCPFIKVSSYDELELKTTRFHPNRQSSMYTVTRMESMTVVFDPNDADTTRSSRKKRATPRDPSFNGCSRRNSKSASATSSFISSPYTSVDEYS

[3] = molecular target: T2, Alpha-1A adrenergic receptor (Homo sapiens) (UniProt P35348); test: Binding affinity at adrenergic alpha-1 receptor at 1 uM
T2 sequence (whole entry): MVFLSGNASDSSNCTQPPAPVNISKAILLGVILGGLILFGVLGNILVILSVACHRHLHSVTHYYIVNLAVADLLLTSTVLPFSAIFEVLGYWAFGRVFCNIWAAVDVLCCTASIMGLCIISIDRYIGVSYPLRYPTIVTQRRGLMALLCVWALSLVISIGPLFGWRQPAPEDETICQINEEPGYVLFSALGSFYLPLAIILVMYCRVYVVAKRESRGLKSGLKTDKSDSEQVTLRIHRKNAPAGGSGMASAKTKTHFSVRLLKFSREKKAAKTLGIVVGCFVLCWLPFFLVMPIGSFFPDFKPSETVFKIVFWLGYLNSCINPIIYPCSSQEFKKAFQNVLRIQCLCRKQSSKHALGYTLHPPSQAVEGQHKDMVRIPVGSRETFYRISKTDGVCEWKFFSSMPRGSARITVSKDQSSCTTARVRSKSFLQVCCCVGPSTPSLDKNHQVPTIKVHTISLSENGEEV

[4] = molecular target: T3, Adenosine receptor A3 (Homo sapiens) (UniProt P0DMS8); test: Binding affinity at adenosine A3 receptor at 1 uM
T3 sequence (whole entry): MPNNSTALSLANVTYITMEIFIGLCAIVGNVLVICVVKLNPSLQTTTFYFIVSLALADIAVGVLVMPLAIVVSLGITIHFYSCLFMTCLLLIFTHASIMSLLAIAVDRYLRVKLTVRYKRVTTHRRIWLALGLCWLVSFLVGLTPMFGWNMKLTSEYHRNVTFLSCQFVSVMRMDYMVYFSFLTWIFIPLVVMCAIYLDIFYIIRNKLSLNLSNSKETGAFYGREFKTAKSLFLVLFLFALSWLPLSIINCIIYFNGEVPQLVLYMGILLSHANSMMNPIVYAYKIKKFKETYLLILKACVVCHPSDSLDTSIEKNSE

Homo sapiens [5] = organism: Homo sapiens; test: Binding affinity for sodium channel at 1 uM
[6] = molecular target: Muscarinic acetylcholine receptor M3 (Homo sapiens) (UniProt P20309); test: Binding affinity at muscarinic M3 receptor at 1 uM
[7] = molecular target: T4, Adenosine receptor A1 (Homo sapiens) (UniProt P30542); test: Binding affinity at adenosine A1 receptor at 1 uM
T4 sequence (whole entry): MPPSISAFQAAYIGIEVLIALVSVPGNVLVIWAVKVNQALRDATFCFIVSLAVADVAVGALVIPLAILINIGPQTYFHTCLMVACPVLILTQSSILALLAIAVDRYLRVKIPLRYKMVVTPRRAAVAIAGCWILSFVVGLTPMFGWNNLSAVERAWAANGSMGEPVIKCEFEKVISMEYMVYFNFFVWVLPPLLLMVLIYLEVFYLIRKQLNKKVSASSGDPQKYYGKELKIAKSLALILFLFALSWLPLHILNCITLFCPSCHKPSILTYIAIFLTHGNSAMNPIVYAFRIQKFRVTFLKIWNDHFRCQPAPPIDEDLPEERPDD

[8] = molecular target: 5-hydroxytryptamine receptor 7 (Homo sapiens) (UniProt P34969); test: Binding affinity at 5HT7 receptor at 1 uM
Homo sapiens [9] = organism: Homo sapiens; test: Binding affinity for chloride channel at 1 uM
[10] = molecular target: T5, Muscarinic acetylcholine receptor M1 (Homo sapiens) (UniProt P11229); test: Binding affinity at muscarinic M1 receptor at 1 uM
T5 sequence (whole entry): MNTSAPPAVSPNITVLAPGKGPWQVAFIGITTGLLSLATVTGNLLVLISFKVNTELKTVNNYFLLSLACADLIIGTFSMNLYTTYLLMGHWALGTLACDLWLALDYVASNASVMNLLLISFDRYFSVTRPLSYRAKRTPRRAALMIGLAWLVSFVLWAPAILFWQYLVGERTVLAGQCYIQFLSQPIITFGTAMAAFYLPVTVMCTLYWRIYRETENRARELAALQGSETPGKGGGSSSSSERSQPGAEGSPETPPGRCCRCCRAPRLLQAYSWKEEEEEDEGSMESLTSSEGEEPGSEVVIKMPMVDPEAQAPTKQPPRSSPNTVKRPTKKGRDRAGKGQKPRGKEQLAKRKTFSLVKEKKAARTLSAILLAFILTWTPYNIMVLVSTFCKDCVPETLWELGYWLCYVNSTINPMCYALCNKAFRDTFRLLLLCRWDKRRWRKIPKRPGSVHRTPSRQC

[11] = molecular target: T6, Galanin receptor type 2 (Homo sapiens) (UniProt O43603); test: Binding affinity at galanin 2 receptor at 1 uM
T6 sequence (whole entry): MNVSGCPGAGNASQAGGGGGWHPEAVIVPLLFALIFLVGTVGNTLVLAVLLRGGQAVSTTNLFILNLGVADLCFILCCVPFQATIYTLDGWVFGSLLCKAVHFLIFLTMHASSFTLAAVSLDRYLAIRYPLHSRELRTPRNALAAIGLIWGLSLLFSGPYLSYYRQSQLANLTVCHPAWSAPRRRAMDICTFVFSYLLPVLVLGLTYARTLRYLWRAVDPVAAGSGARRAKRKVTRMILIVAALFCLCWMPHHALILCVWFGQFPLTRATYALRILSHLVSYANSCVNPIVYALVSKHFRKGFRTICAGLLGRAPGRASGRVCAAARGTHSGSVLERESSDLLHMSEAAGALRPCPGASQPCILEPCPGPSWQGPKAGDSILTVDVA

[12] = molecular target: D(2) dopamine receptor (Homo sapiens) (UniProt P14416); test: Binding affinity at dopamine D2 receptor at 1 uM
Chain of D(2) dopamine receptor (Homo sapiens) (P14416 whole entry): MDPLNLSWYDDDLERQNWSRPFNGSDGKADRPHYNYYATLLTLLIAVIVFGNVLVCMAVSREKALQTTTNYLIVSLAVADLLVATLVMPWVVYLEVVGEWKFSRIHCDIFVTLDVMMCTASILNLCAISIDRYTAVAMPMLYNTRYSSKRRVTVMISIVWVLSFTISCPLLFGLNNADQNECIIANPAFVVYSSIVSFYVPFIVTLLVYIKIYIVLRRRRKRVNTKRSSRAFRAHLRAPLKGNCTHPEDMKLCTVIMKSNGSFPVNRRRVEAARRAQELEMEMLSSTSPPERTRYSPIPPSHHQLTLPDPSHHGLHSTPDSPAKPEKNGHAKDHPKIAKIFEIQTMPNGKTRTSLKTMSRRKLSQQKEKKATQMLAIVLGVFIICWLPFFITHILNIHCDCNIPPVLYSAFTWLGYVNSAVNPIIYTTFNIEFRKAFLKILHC

Chain of Muscarinic acetylcholine receptor M3 (Homo sapiens) (P20309 whole entry, looked up): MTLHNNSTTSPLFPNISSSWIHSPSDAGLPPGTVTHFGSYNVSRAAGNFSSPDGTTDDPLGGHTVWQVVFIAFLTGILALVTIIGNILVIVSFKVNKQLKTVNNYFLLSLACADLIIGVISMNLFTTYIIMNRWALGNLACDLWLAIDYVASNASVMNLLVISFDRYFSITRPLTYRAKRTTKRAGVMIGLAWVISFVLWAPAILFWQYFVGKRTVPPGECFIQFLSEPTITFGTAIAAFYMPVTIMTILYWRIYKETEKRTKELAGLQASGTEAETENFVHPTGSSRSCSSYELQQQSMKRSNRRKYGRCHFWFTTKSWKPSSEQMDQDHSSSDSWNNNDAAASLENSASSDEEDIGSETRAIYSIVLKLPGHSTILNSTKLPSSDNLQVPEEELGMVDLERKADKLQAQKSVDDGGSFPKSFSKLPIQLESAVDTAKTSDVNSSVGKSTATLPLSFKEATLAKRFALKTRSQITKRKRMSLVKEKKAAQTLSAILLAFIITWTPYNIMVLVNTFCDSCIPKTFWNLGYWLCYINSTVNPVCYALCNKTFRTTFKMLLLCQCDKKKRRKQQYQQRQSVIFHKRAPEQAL
Chain of 5-hydroxytryptamine receptor 7 (Homo sapiens) (P34969 whole entry): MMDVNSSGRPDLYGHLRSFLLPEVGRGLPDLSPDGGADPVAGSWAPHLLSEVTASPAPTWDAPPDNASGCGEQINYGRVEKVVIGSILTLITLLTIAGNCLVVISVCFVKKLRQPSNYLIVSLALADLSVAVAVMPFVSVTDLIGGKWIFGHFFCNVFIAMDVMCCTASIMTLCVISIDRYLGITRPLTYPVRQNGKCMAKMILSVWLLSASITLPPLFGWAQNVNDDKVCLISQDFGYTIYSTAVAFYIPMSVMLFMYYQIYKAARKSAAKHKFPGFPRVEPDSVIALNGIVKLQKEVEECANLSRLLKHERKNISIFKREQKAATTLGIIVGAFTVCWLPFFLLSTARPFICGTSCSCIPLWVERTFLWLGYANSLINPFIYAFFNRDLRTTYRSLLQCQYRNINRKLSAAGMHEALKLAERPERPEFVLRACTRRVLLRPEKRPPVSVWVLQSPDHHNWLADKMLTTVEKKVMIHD

Row | Activity (Homo sapiens [1]) | Activity [2] | Activity [3] | Activity [4] | Activity (Homo sapiens [5]) | Activity [6] | Activity [7] | Activity [8] | Activity (Homo sapiens [9]) | Activity [10] | Activity [11] | Activity [12] | SMILES
1 | inactive | inactive | inactive | inactive | inactive | inactive | inactive | inactive | inactive | inactive | inactive | inactive | COc1ccc([C@@H]2CN(C)Cc3cc(OCCCN4CCOC[C@@H]4C)ccc32)cc1
2 | inactive | inactive | inactive | inactive | inactive | inactive | inactive | inactive | inactive | inactive | inactive | inactive | CSc1ccc(C2CN(C)Cc3cc(OCCCN4CCOCC4)ccc32)cc1 (racemic)
3 | inactive | inactive | inactive | inactive | inactive | inactive | inactive | inactive | inactive | inactive | inactive | inactive | CSc1ccc(C2CN(C)Cc3cc(OCCCN4CCC(F)CC4)ccc32)cc1 (racemic)
